Measurements published in US9873696B2, “Neprilysin inhibitors” (THERAVANCE BIOPHARMA R&D IP, LLC, priority 2010, dated 2018).
pKi: −log10 of the molar value.

The molecules below were run against T1, human NEP (Homo sapiens, UniProt P08473) (assay: In vitro enzyme inhibition assay at human NEP (Assay 1)). Conditions: recombinant enzyme, fluorogenic peptide substrate, 37° C.
T1 construct: purchased R&D Systems, Minneapolis, Minn; 1182-ZN
Assay type: biochemical
Protocol: In Vitro Assays for the Quantitation of Inhibitor Potencies (IC50) at Human and Rat NEP, and Human ACE
The inhibitory activities of compounds at human and rat neprilysin (EC 3.4.24.11; NEP) and human angiotensin converting enzyme (ACE) were determined using in vitro assays as described below.
Recombinant human NEP and recombinant human ACE were obtained commercially (R&D Systems, Minneapolis, Minn., catalog numbers 1182-ZN and 929-ZN, respectively). The fluorogenic peptide substrate Mca-D-Arg-Arg-Leu-Dap-(Dnp)-OH (Medeiros et al. (1997) Braz. J. Med. Biol. Res. 30:1157-62; Anaspec, San Jose, Calif.) and Abz-Phe-Arg-Lys(Dnp)-Pro-OH (Araujo et al. (2000) Biochemistry 39:8519-8525; Bachem, Torrance, Calif.) were used in the NEP and ACE assays respectively.
The assays were performed in 384-well white opaque plates at 37° C. using the fluorogenic peptide substrates at a concentration of 10 μM in Assay Buffer (NEP: 50 mM HEPES, pH 7.5, 100 mM NaCl, 0.01% polyethylene glycol sorbitan monolaurate (Tween-20), 10 μM ZnSO4; ACE: 50 mM HEPES, pH 7.5, 100 mM NaCl, 0.01% Tween-20, 1 μM ZnSO4).
Test compounds were assayed over the range of concentrations from […] to 20 μM. Test compounds were added to the enzymes and incubated for 30 minute at 37° C. prior to initiating the reaction by the addition of substrate. Reactions were terminated after 20 minutes of incubation at 37° C. by the addition of glacial acetic acid to a final concentration of 3.6% (v/v).
Plates were read on a fluorometer with excitation and emission wavelengths set to 320 nm and 405 nm, respectively. Inhibition constants were obtained by nonlinear regression of the data using the equation (GraphPad Software, Inc., San Diego, Calif.): v=v0/[1+(I/K′)] where v is the reaction rate, v0 is the uninhibited reaction rate, I is the inhibitor concentration and K′ is the apparent inhibition constant.
Compounds of the invention were tested in this assay and found to have pKi values at human NEP as follows.

T1 sequence (P08473 whole entry): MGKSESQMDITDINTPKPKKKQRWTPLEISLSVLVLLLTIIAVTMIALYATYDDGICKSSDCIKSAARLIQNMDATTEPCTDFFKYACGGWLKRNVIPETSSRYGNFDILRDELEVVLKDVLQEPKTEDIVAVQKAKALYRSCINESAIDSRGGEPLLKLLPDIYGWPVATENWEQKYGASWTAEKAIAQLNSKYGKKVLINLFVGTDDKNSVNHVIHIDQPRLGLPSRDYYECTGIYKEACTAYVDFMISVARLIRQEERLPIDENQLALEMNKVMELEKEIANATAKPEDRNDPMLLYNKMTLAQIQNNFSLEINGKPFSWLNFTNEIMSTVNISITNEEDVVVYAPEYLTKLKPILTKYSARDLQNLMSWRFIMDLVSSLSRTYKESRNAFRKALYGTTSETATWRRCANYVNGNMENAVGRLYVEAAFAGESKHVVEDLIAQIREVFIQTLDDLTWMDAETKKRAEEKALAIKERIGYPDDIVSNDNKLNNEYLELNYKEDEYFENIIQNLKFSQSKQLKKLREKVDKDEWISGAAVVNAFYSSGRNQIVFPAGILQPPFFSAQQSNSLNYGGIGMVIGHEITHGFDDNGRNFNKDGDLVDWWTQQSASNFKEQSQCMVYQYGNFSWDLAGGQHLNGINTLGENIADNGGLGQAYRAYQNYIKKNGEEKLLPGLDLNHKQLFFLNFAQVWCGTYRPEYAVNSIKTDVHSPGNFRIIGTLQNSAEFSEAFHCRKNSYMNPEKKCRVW

| pKi | Structure (SMILES) |
| --- | --- |
| 8.00 to 8.90 | O=C(NN(Cc1ccc(-c2cccc(F)c2)cc1)C[C@@H](O)C(=O)O)c1cc(O)no1 [Example 5-1, (R)-3-[N-(3′-Fluoro-biphenyl-4-ylmethyl)-N′-(3-hydroxy-isoxazole-5-carbonyl)-hydrazino]-2-hydroxy-propionic acid] |
| 7.00 to 7.90 | O=C(NN(Cc1ccc(-c2cccc(C(F)(F)F)c2)cc1)C[C@@H](O)C(=O)O)c1cc(O)no1 [Example 5-2, (R)-2-Hydroxy-3-[N′-(3-hydroxy-isoxazole-5-carbonyl)-N-(3′-trifluoromethyl-biphenyl-4-ylmethyl)-hydrazino]-propionic acid] |
| 8.00 to 8.90 | O=C(NN(Cc1ccc(-c2cccc(O)c2)cc1)C[C@H](O)C(=O)O)c1cc(O)no1 [Example 5-3, (S)-2-Hydroxy-3-[N-(3′-hydroxy-biphenyl-4-ylmethyl)-N′-(3-hydroxy-isoxazole-5-carbonyl)-hydrazino]-propionic acid] |
| ≥ 9.00 | Cc1cccc(-c2ccc(CN(C[C@H](O)C(=O)O)NC(=O)c3cc(O)no3)cc2)c1 [Example 5-4, (S)-2-Hydroxy-3-[N′-(3-hydroxy-isoxazole-5-carbonyl)-N-(3′-methyl-biphenyl-4-ylmethyl)-hydrazino]-propionic acid] |
| 8.00 to 8.90 | COc1ccccc1-c1ccc(CN(C[C@@H](O)C(=O)O)NC(=O)c2cc(O)no2)cc1 [Example 5-5, (R)-2-Hydroxy-3-[N′-(3-hydroxy-isoxazole-5-carbonyl)-N-(2′-methoxy-biphenyl-4-ylmethyl)-hydrazino]-propionic acid] |
| 8.00 to 8.90 | O=C(NN(Cc1ccc(-c2ccccc2O)cc1)C[C@@H](O)C(=O)O)c1cc(O)no1 [Example 5-6, (R)-2-Hydroxy-3-[N-(2′-hydroxy-biphenyl-4-ylmethyl)-N′-(3-hydroxy-isoxazole-5-carbonyl)-hydrazino]-propionic acid] |
| 8.00 to 8.90 | O=C(NN(Cc1ccc(-c2ccccc2Cl)cc1)C[C@@H](O)C(=O)O)c1cc(O)no1 [Example 5-7, (R)-3-[N-(2′-Chloro-biphenyl-4-ylmethyl)-N′-(3-hydroxy-isoxazole-5-carbonyl)-hydrazino]-2-hydroxy-propionic acid] |
| 8.00 to 8.90 | O=C(NN(Cc1ccc(-c2ccccc2F)cc1)C[C@@H](O)C(=O)O)c1cc(O)no1 [Example 5-8, (R)-3-[N-(2′-Fluoro-biphenyl-4-ylmethyl)-N′-(3-hydroxy-isoxazole-5-carbonyl)-hydrazino]-2-hydroxy-propionic acid] |
| 8.00 to 8.90 | COc1ccccc1-c1ccc(CN(C[C@H](O)C(=O)O)NC(=O)c2cc(C(C)=O)n[nH]2)cc1 [Example 5-9, (S)-3-[N′-(5-Acetyl-2H-pyrazole-3-carbonyl)-N-(2′-methoxy-biphenyl-4-ylmethyl)-hydrazino]-2-hydroxy-propionic acid] |
| 8.00 to 8.90 | COc1ccccc1-c1ccc(CN(C[C@@H](O)C(=O)O)NC(=O)c2nnn[nH]2)cc1 [Example 5-10, (R)-2-Hydroxy-3-[N-(2′-methoxy-biphenyl-4-ylmethyl)-N′-(1H-tetrazole-5-carbonyl)-hydrazino]-propionic acid] |
| ≥ 9.00 | O=C(NN(Cc1ccc(-c2cc(Cl)ccc2F)cc1)C[C@@H](O)C(=O)O)c1nnn[nH]1 [Example 6A, (R)-3-[N-(5′-Chloro-2′-fluorobiphenyl-4-ylmethyl)-N′-(1H-tetrazole-5-carbonyl)-hydrazino]-2-hydroxypropionic Acid] |
| ≥ 9.00 | O=C(NN(Cc1ccc(-c2cc(Cl)ccc2Cl)cc1)C[C@@H](O)C(=O)O)c1cn(O)nn1 [Example 7A, (R)-3-[N-(2′,5′-Dichlorobiphenyl-4-ylmethyl)-N′-(1-hydroxy-H-[1,2,3]triazole-4-carbonyl)-hydrazino]-2-hydroxypropionic Acid] |
| ≥ 9.00 | Cc1ccc(Cl)cc1-c1ccc(CN(C[C@@H](O)C(=O)O)NC(=O)c2cc(O)no2)cc1 [Example 8-1, (R)-3-[N-(5′-Chloro-2′-methyl-biphenyl-4-ylmethyl)-N′-(3-hydroxy-isoxazole-5-carbonyl)-hydrazino]-2-hydroxy-propionic acid] |
| ≥ 9.00 | COc1ccc(Cl)cc1-c1ccc(CN(C[C@@H](O)C(=O)O)NC(=O)c2cc(O)no2)cc1 [Example 8-2, (R)-3-[N-(5′-Chloro-2′-methoxy-biphenyl-4-ylmethyl)-N′-(3-hydroxy-isoxazole-5-carbonyl)-hydrazino]-2-hydroxy-propionic acid] |
| 8.00 to 8.90 | COc1ccc(F)cc1-c1ccc(CN(C[C@@H](O)C(=O)O)NC(=O)c2cc(O)no2)cc1 [Example 8-4, (R)-3-[N-(5′-Fluoro-2′-methoxy-biphenyl-4-ylmethyl)-N′-(3-hydroxy-isoxazole-5-carbonyl)-hydrazino]-2-hydroxy-propionic acid] |

Continued, molecule first:

| Structure (SMILES) | pKi |
| --- | --- |
| O=C(NN(Cc1ccc(-c2cccc(Cl)c2)cc1)C[C@@H](O)C(=O)O)c1cc(-c2ccccc2Cl)no1 [Example 4-29, (R)-3-{N-(3′-Chlorobiphenyl-4-ylmethyl)-N′-[3-(2-chlorophenyl)-isoxazole-5-carbonyl]-hydrazino}-2-hydroxy-propionic acid] | ≥ 9.00 |
| COc1ccccc1-c1cc(C(=O)NN(Cc2ccc(-c3cccc(Cl)c3)cc2)C[C@@H](O)C(=O)O)on1 [Example 4-30, (R)-3-{N-(3′-Chlorobiphenyl-4-ylmethyl)-N′-[3-(2-methoxy-phenyl)-isoxazole-5-carbonyl]-hydrazino}-2-hydroxy-propionic acid] | 8.00 to 8.90 |
| O=C(NN(Cc1ccc(-c2cccc(Cl)c2)cc1)C[C@@H](O)C(=O)O)c1cc(-c2ccccc2F)no1 [Example 4-31, (R)-3-{N-(3′-Chlorobiphenyl-4-ylmethyl)-N′-[3-(2-fluorophenyl)-isoxazole-5-carbonyl]-hydrazino}-2-hydroxy-propionic acid] | 8.00 to 8.90 |
| COc1cc(C(=O)NN(Cc2ccc(-c3cccc(Cl)c3)cc2)C[C@@H](O)C(=O)O)on1 [Example 4-32, (R)-3-[N-(3′-Chlorobiphenyl-4-ylmethyl)-N′-(3-methoxy-isoxazole-5-carbonyl)-hydrazino]-2-hydroxy-propionic acid] | 8.00 to 8.90 |
| O=C(NN(Cc1ccc(-c2cccc(Cl)c2)cc1)C[C@@H](O)C(=O)O)c1cnc(O)nc1 [Example 4-34, (R)-3-[N-(3′-Chlorobiphenyl-4-ylmethyl)-N′-(2-hydroxy-pyrimidine-5-carbonyl)-hydrazino]-2-hydroxy-propionic acid] | ≥ 9.00 |
| O=C(O)c1cc(C(=O)NN(Cc2ccc(-c3cccc(Cl)c3)cc2)C[C@@H](O)C(=O)O)ncn1 [Example 4-35, 6-[N′-((R)-2-Carboxy-2-hydroxy-ethyl)-N′-(3′-chlorobiphenyl-4-ylmethyl)-hydrazinocarbonyl]-pyrimidine-4-carboxylic acid] | ≥ 9.00 |
| O=C(NN(Cc1ccc(-c2cccc(Cl)c2)cc1)C[C@@H](O)C(=O)O)c1cc(O)nc(O)n1 [Example 4-36, (R)-3-[N-(3′-Chlorobiphenyl-4-ylmethyl)-N′-(2,6-dihydroxy-pyrimidine-4-carbonyl)-hydrazino]-2-hydroxy-propionic acid] | 7.00 to 7.90 |
| O=C(NN(Cc1ccc(-c2cccc(Cl)c2)cc1)C[C@@H](O)C(=O)O)c1ccnc(O)n1 [Example 4-37, (R)-3-[N-(3′-Chlorobiphenyl-4-ylmethyl)-N′-(2-hydroxy-pyrimidine-4-carbonyl)-hydrazino]-2-hydroxy-propionic acid] | 7.00 to 7.90 |
| O=C(O)c1cc(C(=O)NN(Cc2ccc(-c3cccc(Cl)c3)cc2)C[C@@H](O)C(=O)O)nc(O)n1 [Example 4-38, 6-[N′-((R)-2-Carboxy-2-hydroxy-ethyl)-N′-(3′-chlorobiphenyl-4-ylmethyl)-hydrazinocarbonyl]-2-hydroxy-pyrimidine-4-carboxylic acid] | ≥ 9.00 |
| O=C(NN(Cc1ccc(-c2cccc(Cl)c2)cc1)C[C@@H](O)C(=O)O)c1c[nH]c(=O)o1 [Example 4-39, (R)-3-[N-(3′-Chlorobiphenyl-4-ylmethyl)-N′-(2-oxo-2,3-dihydro-oxazole-5-carbonyl)-hydrazino]-2-hydroxy-propionic acid] | 8.00 to 8.90 |
| O=C(NN(Cc1ccc(-c2cccc(Cl)c2)cc1)C[C@@H](O)C(=O)O)c1cnc(O)s1 [Example 4-40, (R)-3-[N-(3′-Chlorobiphenyl-4-ylmethyl)-N′-(2-hydroxy-thiazole-5-carbonyl)-hydrazino]-2-hydroxy-propionic acid] | 8.00 to 8.90 |
| O=C(NN(Cc1ccc(-c2cccc(Cl)c2)cc1)C[C@@H](O)C(=O)O)c1ccc2[nH]nnc2c1F [Example 4-42, (R)-3-[N-(3′-Chlorobiphenyl-4-ylmethyl)-N′-(4-fluoro-1H-benzotriazole-5-carbonyl)-hydrazino]-2-hydroxy-propionic acid] | 8.00 to 8.90 |
